Data from PubChem BioAssay (NCI).
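Here, GI50 denotes the concentration required for 50% inhibition of growth. The concentration for full growth arrest is given as TGI.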

Assays:
Test in all cases: NCI anticancer screen, dose series, 384-well format
786-0 renal = system: 786-0 renal
A498 renal = system: A498 renal
A549 NSCLC = system: A549 NSCLC
ACHN renal = system: ACHN renal
BT-549 breast = system: BT-549 breast
CAKI-1 renal = system: CAKI-1 renal
CCRF-CEM leukemia = system: CCRF-CEM leukemia
COLO 205 colon = system: COLO 205 colon
DU-145 prostate = system: DU-145 prostate
EKVX NSCLC = system: EKVX NSCLC
HCC-2998 colon = system: HCC-2998 colon
HCT-116 colon = system: HCT-116 colon
HCT-15 colon = system: HCT-15 colon
HL-60(TB) leukemia = system: HL-60(TB) leukemia
HOP-62 NSCLC = system: HOP-62 NSCLC
HOP-92 NSCLC = system: HOP-92 NSCLC
HS 578T breast = system: HS 578T breast
HT29 colon = system: HT29 colon
IGROV1 ovarian = system: IGROV1 ovarian
KM12 colon = system: KM12 colon
LOX IMVI melanoma = system: LOX IMVI melanoma
M14 melanoma = system: M14 melanoma
MALME-3M melanoma = system: MALME-3M melanoma
MCF7 breast = system: MCF7 breast
MDA-MB-231 breast = system: MDA-MB-231 breast
MDA-MB-435 melanoma = system: MDA-MB-435 melanoma
MDA-MB-468 breast = system: MDA-MB-468 breast
MOLT-4 leukemia = system: MOLT-4 leukemia
NCI-H226 lung = system: NCI-H226 lung
NCI-H23 lung = system: NCI-H23 lung
NCI-H322M lung = system: NCI-H322M lung
NCI-H460 NSCLC = system: NCI-H460 NSCLC
NCI-H522 lung = system: NCI-H522 lung
NCI/ADR-RES ovarian = system: NCI/ADR-RES ovarian
OVCAR-3 ovarian = system: OVCAR-3 ovarian
OVCAR-4 ovarian = system: OVCAR-4 ovarian
OVCAR-5 ovarian = system: OVCAR-5 ovarian
OVCAR-8 ovarian = system: OVCAR-8 ovarian
PC-3 prostate = system: PC-3 prostate
RPMI-8226 leukemia = system: RPMI-8226 leukemia
RXF 393 renal = system: RXF 393 renal
SF-268 CNS = system: SF-268 CNS
SF-295 CNS = system: SF-295 CNS
SF-539 CNS = system: SF-539 CNS
SK-MEL-28 melanoma = system: SK-MEL-28 melanoma
SK-MEL-5 melanoma = system: SK-MEL-5 melanoma
SK-OV-3 ovarian = system: SK-OV-3 ovarian
SN12C renal = system: SN12C renal
SNB-19 CNS = system: SNB-19 CNS
SNB-75 CNS = system: SNB-75 CNS
SR leukemia = system: SR leukemia
SW-620 colon = system: SW-620 colon
T-47D breast = system: T-47D breast
TK-10 renal = system: TK-10 renal
U251 glioblastoma = system: U251 glioblastoma
UACC-257 melanoma = system: UACC-257 melanoma
UACC-62 melanoma = system: UACC-62 melanoma
UO-31 renal = system: UO-31 renal

CNC(=O)c1c(C)oc2cc(Oc3ncnc4cc(OC)c(OC)cc34)ccc12
GI50 (786-0 renal): > 100 µM
TGI (786-0 renal): > 100 µM
GI50 (A498 renal): > 100 µM
TGI (A498 renal): > 100 µM
GI50 (A549 NSCLC): > 100 µM
TGI (A549 NSCLC): > 100 µM
GI50 (ACHN renal): > 100 µM
TGI (ACHN renal): > 100 µM
GI50 (BT-549 breast): 11.5 µM
TGI (BT-549 breast): > 100 µM
GI50 (CAKI-1 renal): > 100 µM
TGI (CAKI-1 renal): > 100 µM
GI50 (CCRF-CEM leukemia): > 100 µM
TGI (CCRF-CEM leukemia): > 100 µM
GI50 (COLO 205 colon): > 100 µM
TGI (COLO 205 colon): > 100 µM
GI50 (DU-145 prostate): > 100 µM
TGI (DU-145 prostate): > 100 µM
GI50 (EKVX NSCLC): > 100 µM
TGI (EKVX NSCLC): > 100 µM
GI50 (HCC-2998 colon): > 100 µM
TGI (HCC-2998 colon): > 100 µM
GI50 (HCT-116 colon): > 100 µM
TGI (HCT-116 colon): > 100 µM
GI50 (HCT-15 colon): > 100 µM
TGI (HCT-15 colon): > 100 µM
GI50 (HL-60(TB) leukemia): > 100 µM
TGI (HL-60(TB) leukemia): > 100 µM
GI50 (HOP-62 NSCLC): > 100 µM
TGI (HOP-62 NSCLC): > 100 µM
GI50 (HOP-92 NSCLC): > 87.5 µM
TGI (HOP-92 NSCLC): > 100 µM
GI50 (HS 578T breast): 25.5 µM
TGI (HS 578T breast): > 100 µM
GI50 (HT29 colon): > 100 µM
TGI (HT29 colon): > 100 µM
GI50 (IGROV1 ovarian): > 100 µM
TGI (IGROV1 ovarian): > 100 µM
GI50 (KM12 colon): > 100 µM
TGI (KM12 colon): > 100 µM
GI50 (LOX IMVI melanoma): > 100 µM
TGI (LOX IMVI melanoma): > 100 µM
GI50 (M14 melanoma): > 100 µM
TGI (M14 melanoma): > 100 µM
GI50 (MALME-3M melanoma): > 100 µM
TGI (MALME-3M melanoma): > 100 µM
GI50 (MCF7 breast): > 100 µM
TGI (MCF7 breast): > 100 µM
GI50 (MDA-MB-231 breast): > 100 µM
TGI (MDA-MB-231 breast): > 100 µM
GI50 (MDA-MB-435 melanoma): > 100 µM
TGI (MDA-MB-435 melanoma): > 100 µM
GI50 (MDA-MB-468 breast): > 100 µM
TGI (MDA-MB-468 breast): > 100 µM
GI50 (MOLT-4 leukemia): > 87.1 µM
TGI (MOLT-4 leukemia): > 100 µM
TGI (NCI-H226 lung): > 100 µM
GI50 (NCI-H23 lung): > 100 µM
TGI (NCI-H23 lung): > 100 µM
GI50 (NCI-H322M lung): > 100 µM
TGI (NCI-H322M lung): > 100 µM
GI50 (NCI-H460 NSCLC): > 100 µM
TGI (NCI-H460 NSCLC): > 100 µM
GI50 (NCI-H522 lung): > 100 µM
TGI (NCI-H522 lung): > 100 µM
GI50 (NCI/ADR-RES ovarian): > 100 µM
TGI (NCI/ADR-RES ovarian): > 100 µM
GI50 (OVCAR-3 ovarian): > 100 µM
TGI (OVCAR-3 ovarian): > 100 µM
GI50 (OVCAR-4 ovarian): > 100 µM
TGI (OVCAR-4 ovarian): > 100 µM
GI50 (OVCAR-5 ovarian): > 100 µM
TGI (OVCAR-5 ovarian): > 100 µM
GI50 (OVCAR-8 ovarian): > 100 µM
TGI (OVCAR-8 ovarian): > 100 µM
GI50 (PC-3 prostate): > 100 µM
TGI (PC-3 prostate): > 100 µM
GI50 (RPMI-8226 leukemia): > 71.1 µM
TGI (RPMI-8226 leukemia): > 100 µM
GI50 (RXF 393 renal): > 21.9 µM
TGI (RXF 393 renal): > 100 µM
GI50 (SF-268 CNS): > 100 µM
TGI (SF-268 CNS): > 100 µM
GI50 (SF-295 CNS): > 100 µM
TGI (SF-295 CNS): > 100 µM
GI50 (SF-539 CNS): 10.2 µM
TGI (SF-539 CNS): > 100 µM
GI50 (SK-MEL-28 melanoma): > 100 µM
TGI (SK-MEL-28 melanoma): > 100 µM
GI50 (SK-MEL-5 melanoma): > 100 µM
TGI (SK-MEL-5 melanoma): > 100 µM
GI50 (SK-OV-3 ovarian): > 100 µM
TGI (SK-OV-3 ovarian): > 100 µM
GI50 (SN12C renal): > 100 µM
TGI (SN12C renal): > 100 µM
GI50 (SNB-19 CNS): > 100 µM
TGI (SNB-19 CNS): > 100 µM
GI50 (SNB-75 CNS): 4.3 µM
TGI (SNB-75 CNS): > 29.4 µM
GI50 (SR leukemia): > 61.5 µM
TGI (SR leukemia): > 100 µM
GI50 (SW-620 colon): > 100 µM
TGI (SW-620 colon): > 100 µM
GI50 (T-47D breast): > 100 µM
TGI (T-47D breast): > 100 µM
GI50 (TK-10 renal): > 100 µM
TGI (TK-10 renal): > 100 µM
GI50 (U251 glioblastoma): > 100 µM
TGI (U251 glioblastoma): > 100 µM
GI50 (UACC-257 melanoma): > 100 µM
TGI (UACC-257 melanoma): > 100 µM
GI50 (UACC-62 melanoma): > 100 µM
TGI (UACC-62 melanoma): > 100 µM
GI50 (UO-31 renal): > 96.2 µM
TGI (UO-31 renal): > 100 µM
